Source: patent US20110318422A1, “TARGETED ACTIVE AGENT DELIVERY SYSTEM BASED ON CALCIUM PHOSPHATE NANOPARTICLES” (priority 2007, published 2011)
Several values for one entry are separate records, joined by “and”; a condition that tells them apart may be missing. Identical values can stand only once.

How the values were obtained:
[1] = tested on: A2780cis human ovarian carcinoma cell line; assay: In vitro cytotoxicity, CellTiter96 AQueous One proliferation assay (Example 1); assay type: cell-based; details: A2780cis cells; sample added to cells; Example 1 particles
Method: In one set of in vitro cytotoxicity activity studies, the cisplatin-resistant A2780cis human ovarian carcinoma cell line was used. A2780cis human ovarian carcinoma cell line (Sigma, 93112517) was cultured according to supplier's descriptions. IC50 values (50% inhibitory concentration) were determined with the CellTiter96® AQueous One (Promega) colorimetric proliferation assay. The CellTiter96® AQueous One (Promega) colorimetric proliferation assay was used to determine the IC50 value (50% inhibitory concentration) evaluated from 12 two-fold dilutions of: (a) cisplatin (200 μg cisplatin /mL) in 0.9% saline (free active agent), (b) 1.5 mg of conjugates in 1.75 ml PBS, (c) 1.5 mg of hydroxyapatite in 1.75 ml of cisplatin solution. Control wells containing the hydroxyapatite only were used since the hydroxyapatite interferes with the CellTiter96 assay. Absorbance values from the hydroxyapatite only were subtracted from the conjugate data in order to determine the IC50 values. The cytotoxicity assay was conducted as follows: twenty-four hours after seeding 2000 A2780cis cells in […] of media on 96 well plates, […] PBS, or PBS with drug or conjugates was added to the wells.

[2] = tested on: ME-180 tumors; assay: Chemoradiotherapy of intradermal ME-180 tumors in mice; assay type: in vivo, athymic Ncr-nu/nu mice; details: with single 8 Gy radiation; conjugate IT 10 mg/kg, cisplatin IP 7 mg/kg
Method: Chemoradiotherapy of ME-180 Tumors with intratumoral calcium phosphate particle/cisplatin conjugate was performed. Primary tumors were initiated on the right flank in seventy athymic Ncr-nu/nu mice, 5-7 weeks old, by intradermal injections of 2.25×10^6 ME-180 cells, a human cervical cancer line. Six treatment groups were established for the study and included an untreated control, 7 mg/kg intraperitoneal (IP) cisplatin, and intratumoral (IT) calcium phosphate particle/cisplatin conjugate at a dose of 10 mg/kg. These three treatment groups were repeated in combination with a single dose of radiation at 8 Gy (Varian 2100 C), for a total of six treatment groups. Mice were entered into treatment groups once the intradermal ME-180 tumors were 100 mm^3±10% in size. A minimum of 5 mice was placed into each group. The conjugate was injected via an 18-gauge needle directly into the intradermal tumor. Tumor length and width were measured daily and the volume determined (Tumor volume=(width)^2×length×0.4). Mouse weight was also recorded daily as weight loss is an indicator of cisplatin side effects. Statistical analysis, a one-way ANOVA and Newman-Kuels Comparison Test, was applied to the tumor volumes on day 15 after treatment.

[3] = Lymph node accumulation after footpad injection (Pt by graphite furnace AAS); assay type: in vivo, BALB/c mice; details: 20 μl footpad injection; nodes at 30 min, 1, 4, 7 days
Method: Lymph node accumulation studies were conducted using nine BALB/c mice, 5-7 weeks old injected with 20 μl of calcium phosphate particle/cisplatin conjugate (40 mg/ml) in both rear footpads. Six control mice received 20 μl footpad injections of cisplatin solution only. Draining lymph nodes, as determined by lymphazurin injections (popliteal, inguinal, and lumbar) were collected at 30 min, 1 day, 4 day and 7 days and analyzed for Pt content by graphite furnace atomic absorption spectroscopy. Use of calcium phosphate particle/cisplatin conjugate leads to sustained elevated levels of cisplatin in the draining nodes.

[4] = tested on: A2780cis human ovarian carcinoma cell line; assay: In vitro cytotoxicity, CellTiter96 AQueous One proliferation assay (Example 2); assay type: cell-based; details: two days exposure, conjugate loading 112 μg/mg, listed as free active agent
Method: For in vitro cytotoxicity activity studies, the cisplatin-resistant cell line was used: A2780cis human ovarian carcinoma cell line (Sigma, 93112517) and cultured according to supplier's descriptions. Briefly, cells were cultured in RPMI1640 medium, supplemented with 2 mM Glutamine and 10% Fetal Bovine Serum (FBS) in a humid atmosphere at 37° C. and 5% CO2. Cells were supplemented with 1 μm cisplatin to the culture media every 2-3 passages, post-attachment. […] Three days were necessary to achieve a cisplatin concentration high enough to obtain an IC50 value. […] To confirm that the particle conjugates were diluted evenly across the wells, measurements of the total Pt concentration in all the wells of the active agent master plate were made by AAS after dissolving the conjugate solutions in dilute HCl. […] Absorbance values were converted to IC50 values using the four parameter logistic equation: Y=(Amax-Amin)/1+(x/IC50)^n+Amin Eq. 2 where Y=observed absorbance • Amax=absorbance of control cells • Amin=absorbance of cells in presence of highest agent concentration • x=active agent concentration (μg/ml) • n=slope of curve Samples were analyzed for statistically significant differences using the Student's T-test (P<0.05).

N.N.[Cl][Pt][Cl] [cisplatin]
IC50 (50% inhibitory concentration) [1]: 6.07 ± 0.226 µg/mL
tumors completely regressed [2]: ⅙
duration of cisplatin levels in the draining popliteal node [3]: barely detected after one day
IC50, direct addition study [4]: 6.297 ± 0.43 µg/mL and 6.3 µg/mL
